Each compound was assayed against T1, MAGL protein (Homo sapiens, UniProt Q99685) (assay: 2-AG assay: MAGL inhibitory activity by hydrolysis of 2-arachidonoylglycerol to arachidonic acid, followed by mass spectrometry). Details: 8 μM 2-arachidonoylglycerol, 15 min preincubation, 30 min reaction at RT, RapidFire MS readout.
T1 sequence (Q99685 1-303): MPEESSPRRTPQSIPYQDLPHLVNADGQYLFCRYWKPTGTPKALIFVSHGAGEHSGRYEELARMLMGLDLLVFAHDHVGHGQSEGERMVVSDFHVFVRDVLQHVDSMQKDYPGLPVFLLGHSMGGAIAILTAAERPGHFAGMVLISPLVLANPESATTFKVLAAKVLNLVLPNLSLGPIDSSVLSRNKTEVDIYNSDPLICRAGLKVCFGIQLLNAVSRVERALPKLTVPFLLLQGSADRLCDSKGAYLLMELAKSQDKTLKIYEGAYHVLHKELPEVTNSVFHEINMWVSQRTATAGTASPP
Assay type: biochemical
Summary of the method: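 Activity was measured by RapidFire SPE–triple-quad MS as the ratio of arachidonic acid to d8-arachidonic acid after 2-AG hydrolysis (8 μM substrate, 30 min, RT, acetonitrile quench). Compounds, tested from 12.5 μM down to […], were first preincubated 15 min with MAGL in TRIS/EDTA/Tween-20 buffer containing 2.5% DMSO.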

Compound	IC50 [nM]
N=[S@@](=O)(c1ccc(CC2CC3(C2)CN(C(=O)N2CC4(CC(c5nnc(C6CC6)[nH]5)C4)C2)C3)cc1)C(F)(F)F (single isomer, unassigned) [compound 128]	0.16
O=C(N1CC2(CC(Cc3cc(F)cc(C(F)(F)F)c3)C2)C1)N1CC2(CC(c3nnc(C4(O)CC4)[nH]3)C2)C1 [compound 122]	< 0.05
N=S(=O)(c1cnn(CC2CC3(C2)CN(C(=O)N2CC4(CC(c5nc(C6CC6)n[nH]5)C4)C2)C3)c1)C(F)(F)F (stereo not shown) [compound 950]	3.03
O=C(N1CC2(CC(Cn3nccc3C(F)(F)F)C2)C1)N1CC2(CC(c3nc(C4CC4)n[nH]3)C2)C1 [compound 410]	0.14
O=C(N1CC2(CC(c3nnc(C4CC4)[nH]3)C2)C1)N1CC2(CCN(Cc3ccc(C(F)(F)F)cn3)C2)C1 [compound 182]	5.91
Cn1nc(CC2CC3(C2)CN(C(=O)N2CC4(CC(c5nc(C6CC6)n[nH]5)C4)C2)C3)cc1C(F)(F)F [compound 506]	0.12
O=C(N1CC(C23CC(c4cncc(F)c4)(C2)C3)C1)N1CC2(CC(c3nc(C4CC4)n[nH]3)C2)C1 [compound 760]	6.09
O=C(N1CC2(CC(c3nnc(C4CC4)[nH]3)C2)C1)N1CC2(CC(C(F)(F)c3ccc(C(F)(F)F)nc3)C2)C1 [compound 826]	0.56
O=C(N1CC2(CC(c3nc(C4CC4)n[nH]3)C2)C1)N1CC2(CN(Cc3cc(C(F)(F)F)no3)C2)C1 [compound 672]	8.31
Cn1ncc(CC2CC3(C2)CN(C(=O)N2CC4(CC(c5nc(C6COC6)n[nH]5)C4)C2)C3)c1C(F)(F)F [compound 774]	7.94
N#Cc1cc(C2CC2)ccc1OC1CN(C(=O)N2CC3(CC(c4nnc(C5(O)CC5)[nH]4)C3)C2)C1 [compound 317]	7.18
O=C(N1CC(C23CC(Cn4cc(C(F)(F)F)cn4)(C2)C3)C1)N1CC2(CC(c3nc(C4CC4)n[nH]3)C2)C1 [compound 949]	0.16
N=S(=O)(c1cccc(CC2CC3(C2)CN(C(=O)N2CC4(CC(c5nnc(C6CC6)[nH]5)C4)C2)C3)c1)C(F)(F)F (racemic) [compound 125]	0.08
Cn1cc(-c2ccc(C3CN(C(=O)N4CC5(CC(c6nc(C7(O)CC7)n[nH]6)C5)C4)C3)cc2)c(C(F)(F)F)n1 [compound 823]	0.21
O=C(N1CC2(CCC(OCC3(C(F)(F)F)CC3)CC2)C1)N1CC2(CC(c3nnc(C4(O)CC4)[nH]3)C2)C1 [compound 66]	1.91
O=C(N1CC2(CCN(Cc3cc(C(F)(F)F)sn3)CC2)C1)N1CC2(CC(c3nc(C4CC4)n[nH]3)C2)C1 [compound 432]	3.45
O=C(N1CC2(CC(c3cnc(C(F)(F)F)nc3)C2)C1)N1CC2(CC(c3nnc(C4CC4)[nH]3)C2)C1 [compound 630]	1.36
CS(=O)(=O)c1ccc(OCC2CCN(C(=O)N3CC4(CC(c5nc(C6(O)CC6)n[nH]5)C4)C3)CC2)cc1C(F)(F)F [Example 922]	326
O=C(N1CC2(CC(c3nc(C4(O)CC4)n[nH]3)C2)C1)N1CC2(CC[C@H](Cc3ccc(S(=O)(=O)C(F)(F)F)cc3)C2)C1 [compound 653]	1
O=C(N1CC2(CCC(Cc3ccc(Cl)cn3)CC2)C1)N1CC2(CC(c3nnc(C4CC4)[nH]3)C2)C1 [compound 138]	0.3
N#Cc1cc(CC2CC3(C2)CN(C(=O)N2CC4(CC(c5nnc(C6(O)CC6)[nH]5)C4)C2)C3)cnc1C(F)(F)F [compound 606]	5.17
O=C(N1CC2(CC(c3nc(C4CC4)n[nH]3)C2)C1)N1CC2(CN(Cc3cc(C4CC4)n[nH]3)C2)C1 [compound 900]	25.3
CCNC(=O)c1cc(Cl)ccc1C12CC(C3CN(C(=O)N4CC5(CC(c6nnc(C7CC7)[nH]6)C5)C4)C3)(C1)C2 [compound 767]	4.07
Cn1cc(CN2CC3(C2)CN(C(=O)N2CC4(CC(c5nc(C6CC6)n[nH]5)C4)C2)C3)c(C(F)(F)F)n1 [compound 472]	17.7
O=C(N1CC(c2ccc(N3CCC(O)(C(F)(F)F)C3)nc2)C1)N1CC2(CC(c3nnc(C4CC4)[nH]3)C2)C1 (single isomer, unassigned) [compound 271]	2.73
O=C(N1CC2(CCN(S(=O)(=O)C34CC(C(F)(F)F)(C3)C4)CC2)C1)N1CC2(CC(c3nnc(C4CCC4)[nH]3)C2)C1 [compound 239]	842
O=C(N1CC2(CCC(Cc3ccc(OC(F)F)nc3)CC2)C1)N1CC2(CC(c3nnc(C4(O)CC4)[nH]3)C2)C1 [compound 146]	9.79
O=C(N1CC2(CC(Cc3cc(C(F)F)[nH]n3)C2)C1)N1CC2(CC(c3nc(C4CC4)n[nH]3)C2)C1 [compound 610]	0.4

Compound	IC50 [nM]
O=C(N1CC2(CC(Cc3ccc(C(F)(F)F)cc3F)C2)C1)N1CC2(CC(c3nc(C4(F)CC4)n[nH]3)C2)C1 [compound 522]	0.05
O=C(N1CCC(COc2ccc(F)c(C(F)(F)F)c2)CC1)N1CC2(CC(c3nc(C4(O)CC4)n[nH]3)C2)C1 [Example 916, [4-[[4-fluoro-3-(trifluoromethyl)phenoxy]methyl]piperidino]-[6-[3-(1-hydroxycyclopropyl)-1H-1,2,4-triazol-5-yl]-2-azaspiro[3.3]heptan-2-yl]methanone]	39.7
O=C(N1CC2(CCN(Cc3ccc(C(F)(F)F)cc3F)CC2)C1)N1CC2(CC(c3nnc(C4CC4)[nH]3)C2)C1 [compound 177]	0.38
O=C(N1CC2(CCC(S(=O)(=O)c3cccc(C(F)(F)F)c3)CC2)C1)N1CC2(CC(c3nc(C4CC4)n[nH]3)C2)C1 [compound 435]	3.95
N#Cc1cc(Cl)cnc1OCC1CCN(C(=O)N2CC3(CC(c4nc(C5CC5)n[nH]4)C3)C2)CC1 [Example 908]	56.6
COc1cc(C(N)=O)ccc1COC1CCN(C(=O)N2CC3(CC(c4nnc(C5CC5)[nH]4)C3)C2)CC1 [Example 885, 4-[[1-[6-(5-cyclopropyl-4H-1,2,4-triazol-3-yl)-2-azaspiro[3.3]heptane-2-carbonyl]-4-piperidyl]oxymethyl]-3-methoxy-benzamide]	352
CS(=O)(=O)c1cc(F)ccc1OC1CCC2(CC1)CN(C(=O)N1CC3(CC(c4nnc(C5CC5)[nH]4)C3)C1)C2 [compound 355]	8.86
Cc1cc([C@H](C)C2CC3(C2)CN(C(=O)N2CC4(CC(c5nc(C6CC6)n[nH]5)C4)C2)C3)ncc1C(F)(F)F [compound 967]	0.18
CS(=N)(=O)c1cccc(CC2CC3(C2)CN(C(=O)N2CC4(CC(c5nnc(C6CC6)[nH]5)C4)C2)C3)c1 (stereo not shown) [compound 124]	2.46
CS(=O)(=O)c1ccc(Cl)cc1OC1CCC2(CC1)CN(C(=O)N1CC3(CC(c4nnc(C5CC5)[nH]4)C3)C1)C2 [compound 350]	3.43
Cn1nc(C(F)(F)F)cc1CC1CC2(C1)CN(C(=O)N1CC3(CC(c4nc(C5CC5)n[nH]4)C3)C1)C2 [compound 785]	0.39
N#Cc1[nH]nnc1-c1ccc(C2CN(C(=O)N3CC4(CC(c5nnc(C6CC6)[nH]5)C4)C3)C2)cc1 [Example 910, 4-[4-[1-[6-(5-cyclopropyl-4H-1,2,4-triazol-3-yl)-2-azaspiro[3.3]heptane-2-carbonyl]azetidin-3-yl]phenyl]-1H-triazole-5-carbonitrile]	4.23
O=C(N1CC2(CC(Cc3cncc(S(=O)(=O)C(F)(F)F)c3)C2)C1)N1CC2(CC(c3nc(C4(O)CC4)n[nH]3)C2)C1 [compound 560]	1.25
O=C(N1CC(c2ccc(N3CCC(O)(C(F)(F)F)C3)nc2)C1)N1CC2(CC(c3nnc(C4CC4)[nH]3)C2)C1 (single isomer, unassigned) [compound 270]	4.93
O=C(N1CC(c2cnc(C3(C(F)(F)F)CC3)nc2)C1)N1CC2(CC(c3nnc(C4CC4)[nH]3)C2)C1 [compound 235]	21.9
O=C(N1CC2(CC(Cc3ncc(C(F)(F)F)cc3F)C2)C1)N1CC2(CC(c3nc(C4CC(F)(F)C4)n[nH]3)C2)C1 [compound 508]	6.66
O=C(N1CC(C23CC(Nc4cnc(C(F)(F)F)cn4)(C2)C3)C1)N1CC2(CC(c3nc(C4(O)CC4)n[nH]3)C2)C1 [compound 593]	1.36
CC(C)(C)CS(=O)(=O)NC1CC2(C1)CN(C(=O)N1CC3(CC(c4nnc(C5CC5)[nH]4)C3)C1)C2 [compound 225]	3.67
O=C(N1CC(c2ccc(NC3CCS(=O)(=O)C3)nc2)C1)N1CC2(CC(c3nnc(C4CC4)[nH]3)C2)C1 (stereo not shown) [compound 81]	28.2
Cc1cc(C(C)(C)C)nn1-c1ccc(C2CN(C(=O)N3CC4(CC(c5nnc(C6CC6)[nH]5)C4)C3)C2)cc1 [compound 277]	0.17
O=C(N1CC(c2ccc(N3CC(C(F)(F)F)C3)nc2)C1)N1CC2(CC(c3nnc(C4(O)CC4)[nH]3)C2)C1 [compound 259]	3.63
O=C(N1CC2(CCC(S(=O)(=O)c3ccc(C(F)(F)F)cc3)CC2)C1)N1CC2(CC(c3nc(C4CC4)n[nH]3)C2)C1 [compound 723]	1.37
O=C(N1CC(c2ccc(N3CC(O)(C(F)(F)F)C3)nc2)C1)N1CC2(CC(c3nc(C4CC(F)(F)C4)n[nH]3)C2)C1 [compound 646]	424
O=C(N1CC2(CC(Cc3cnn(CC(F)(F)F)c3)C2)C1)N1CC2(CC(c3nc(C4CC4)n[nH]3)C2)C1 [compound 764]	1.08
CS(=N)(=O)c1cccc(CC2CC3(C2)CN(C(=O)N2CC4(CC(c5nc(C6CC(F)(F)C6)n[nH]5)C4)C2)C3)c1 (stereo not shown) [compound 493]	956
CS(=O)(=O)c1ccc(COC2CN(C(=O)N3CC4(CC(c5nnc(C6CC6)[nH]5)C4)C3)C2)cc1 [compound 333]	159
CC(C)(C)Cc1nnc(C23CC(C4CN(C(=O)N5CC6(CC(c7nc(C8COC8)n[nH]7)C6)C5)C4)(C2)C3)s1 [compound 800]	554
